From patent US20250304563A1, “ACTIVATORS OF EFFECTOR T CELLS” (Orum Therapeutics, Inc., priority 2022, published 2025) come the findings set out here.

pIC50: −log10 of the molar value.

Assay [1] addresses Cbl-b (36-427 aa truncated form, N-terminus Avi-tag) (Homo sapiens (Human), UniProt Q13191). The assay is described as follows: Cbl-b binding: TR-FRET displacement of BODIPY-FL probe. A digest of the protocol: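 IC50 from loss of terbium–BODIPY-FL TR-FRET signal as compounds compete off a fluorescent Cbl-b inhibitor probe (1 uM) for 1 h at RT. Protein: N-Avi-tagged human Cbl-b 36-427 on streptavidin-terbium, 20 mM HEPES pH 7.5 buffer.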
A general note: In TR-FRET formats the signal depends on donor and acceptor labels being close together.

Assay [2] concerns Human primary T cells. The assay is described as follows: T cell activation: secreted IFN-y. It counts as cell-based. The note with it: 48 hours, fold over background normalized to Compound 141A; for IFN-y 1 nM: 1 nM compound; for IFN-y 10 nM: 10 nM compound; for IFN-y 100 nM: 100 nM compound. A digest of the protocol:
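Values are binned ranges (A–D) of fold increase over anti-CD3/CD28 background, normalized to a reference compound, for IFN-γ in supernatants measured by bead array. Pan-T cells from donor PBMC or LeukoPaks were stimulated on anti-CD3-coated wells (10 μg/mL coating) in serum-free medium with compound for 48 h at 37 °C.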

For assay [3], the system named is Human primary T cells. The assay is described as follows: T cell activation: CD69 surface expression by flow cytometry. It is filed as cell-based. The note with it: fold over anti-CD3 stimulated background normalized to Compound 141A; for CD69 10 nM: 10 nM compound; for CD69 100 nM: 100 nM compound. Put shortly: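 Read-out is flow-cytometric CD69 surface staining, expressed as fold increase over anti-CD3-stimulated background and normalized to Compound 141A. Human pan T cells from PBMC or LeukoPaks were plated on OKT3-coated wells in serum-free XVivo-15. Compound dilutions were added for 48 h at 37° C, 5% CO2.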
In general terms: A flow cytometer gives signals particle by particle.

Assay [4] relates to Human primary T cells. The assay is described as follows: T cell activation: secreted IL-2. It counts as cell-based. The note with it: 48 hours, fold over background normalized to Compound 141A; for IL-2 1 nM: 1 nM compound; for IL-2 10 nM: 10 nM compound; for IL-2 100 nM: 100 nM compound. A digest of the protocol: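 IL-2 values are fold over anti-CD3/CD28 background, normalized to a reference compound and sorted into ranges. They come from supernatants of human pan-T cells captured on anti-CD3-coated plates and exposed 48 h, 37° C., to duplicate compound dilutions, measured with cytometric beads.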

Chain of Cbl-b (36-427 aa truncated form, N-terminus Avi-tag) (Q13191 36-427): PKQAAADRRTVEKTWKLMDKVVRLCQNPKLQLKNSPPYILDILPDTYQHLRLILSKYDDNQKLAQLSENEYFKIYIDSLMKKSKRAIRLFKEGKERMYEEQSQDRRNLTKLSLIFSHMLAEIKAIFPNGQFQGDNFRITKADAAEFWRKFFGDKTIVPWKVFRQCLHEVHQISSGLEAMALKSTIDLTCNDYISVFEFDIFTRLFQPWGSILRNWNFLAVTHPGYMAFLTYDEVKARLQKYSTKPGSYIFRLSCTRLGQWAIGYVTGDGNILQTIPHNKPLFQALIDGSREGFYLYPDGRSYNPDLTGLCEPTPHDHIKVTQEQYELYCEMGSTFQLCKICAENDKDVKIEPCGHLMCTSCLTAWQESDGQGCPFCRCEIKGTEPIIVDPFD

The pIC50 is the IC50 on a negative log10 scale, so that one unit is a factor of ten. Higher therefore signals a low IC50. Take `C[C@H]1CCCN(Cc2cc3c(c(C(F)(F)F)c2)CN(c2cc(C4(Cc5nncn5C)COC4)cc(OCCCC#N)n2)C3=O)C1.O=C(O)C(F)(F)F` [Compound 122, 4-[(4-{3-[(4-methyl-1,2,4-triazol-3-yl)methyl]oxetan-3-yl}-6-(6-{[(3S)-3-methylpiperidin-1-yl]methyl}-1-oxo-4-(trifluoromethyl)-3H-isoindol-2-yl)pyridin-2-yl)oxy]butanenitrile; trifluoroacetic acid]: in assay [1], the pIC50 was 8.30 to 9.00. In addition, in assay [2], the “IFN-y 1 nM” value is “C (values between 0.10 and 0.30: range “C”)”; the “IFN-y 10 nM” value was “B (values between 0.31 and 1.00: range “B;”)”; the “IFN-y 100 nM” value is “B (values between 0.31 and 1.00: range “B;”)”. In assay [3], the “CD69 10 nM” value was “B (values between 0.61 and 0.80: range “B;”)”; the “CD69 100 nM” value is “A (values between 0.81 and 1.10: range “A”)”. Also, in assay [4], the “IL-2 1 nM” value was “C (values between 0.10 and 0.30: range “C”)”; the “IL-2 10 nM” value was “B (values between 0.31 and 0.79: range “B”)”; the “IL-2 100 nM” value is “B (values between 0.31 and 0.79: range “B”)”.
The compound `CC(C)C(C#N)Oc1cc(C2(Cc3nncn3C)COC2)cc(N2Cc3c(cc(CN4CCC[C@H](C)C4)cc3C(F)(F)F)C2=O)n1.O=CO` (stereo partly drawn) [Compound 123, 3-methyl-2-[(4-{3-[(4-methyl-1,2,4-triazol-3-yl)methyl]oxetan-3-yl}-6-(6-{[(3S)-3-methylpiperidin-1-yl]methyl}-1-oxo-4-(trifluoromethyl)-3H-isoindol-2-yl)pyridin-2-yl)oxy]butanenitrile; formic acid] showed a pIC50 in assay [1] of 8.30 to 9.00. Also, in assay [2], the “IFN-y 1 nM” value was “C (values between 0.10 and 0.30: range “C”)”; the “IFN-y 10 nM” value was “C (values between 0.10 and 0.30: range “C”)”; the “IFN-y 100 nM” value is “B (values between 0.31 and 1.00: range “B;”)”. In assay [3], the “CD69 10 nM” value was “C (values between 0.30 and 0.60: range “C”)”; the “CD69 100 nM” value is “B (values between 0.61 and 0.80: range “B;”)”. In addition, in assay [4], the “IL-2 1 nM” value was “C (values between 0.10 and 0.30: range “C”)”; the “IL-2 10 nM” value is “C (values between 0.10 and 0.30: range “C”)”; the “IL-2 100 nM” value is “B (values between 0.31 and 0.79: range “B”)”.
`C[C@H]1CCCN(Cc2cc3c(c(C(F)(F)F)c2)CN(c2cc(C4(Cc5nncn5C)COC4)cc(SCCC(=O)O)n2)C3=O)C1` [Compound 124, 3-[(4-{3-[(4-methyl-1,2,4-triazol-3-yl)methyl]oxetan-3-yl}-6-(6-{[(3S)-3-methylpiperidin-1-yl]methyl}-1-oxo-4-(trifluoromethyl)-3H-isoindol-2-yl)pyridin-2-yl)sulfanyl]propanoic acid]: the negative-log IC50 (pIC50) in assay [1] was 6.00 to 7.00. Moreover, in assay [2], the “IFN-y 1 nM” value is “C (values between 0.10 and 0.30: range “C”)”; the “IFN-y 10 nM” value is “C (values between 0.10 and 0.30: range “C”)”; the “IFN-y 100 nM” value is “C (values between 0.10 and 0.30: range “C”)”. In addition, in assay [3], the “CD69 10 nM” value was “C (values between 0.30 and 0.60: range “C”)”; the “CD69 100 nM” value is “C (values between 0.30 and 0.60: range “C”)”. Moreover, in assay [4], the “IL-2 1 nM” value is “C (values between 0.10 and 0.30: range “C”)”; the “IL-2 10 nM” value was “C (values between 0.10 and 0.30: range “C”)”; the “IL-2 100 nM” value was “C (values between 0.10 and 0.30: range “C”)”.
The compound `C=CC(=O)NCCNc1cc(C2(Cc3nncn3C)COC2)cc(N2Cc3c(cc(CN4CCC[C@H](C)C4)cc3C(F)(F)F)C2=O)n1` [Compound 125, (S)-N-(2-((4-(3-((4-methyl-4H-1,2,4-triazol-3-yl)methyl)oxetan-3-yl)-6-(6-((3-methylpiperidin-1-yl)methyl)-1-oxo-4-(trifluoromethyl)isoindolin-2-yl)pyridin-2-yl)amino)ethyl)acrylamide] showed a pIC50 in assay [1] of 7.70 to 8.30. Moreover, in assay [2], the “IFN-y 1 nM” value is “C (values between 0.10 and 0.30: range “C”)”; the “IFN-y 10 nM” value was “C (values between 0.10 and 0.30: range “C”)”; the “IFN-y 100 nM” value was “B (values between 0.31 and 1.00: range “B;”)”. Besides, in assay [3], the “CD69 10 nM” value is “C (values between 0.30 and 0.60: range “C”)”; the “CD69 100 nM” value was “A (values between 0.81 and 1.10: range “A”)”. For the same compound, in assay [4], the “IL-2 1 nM” value was “C (values between 0.10 and 0.30: range “C”)”; the “IL-2 10 nM” value is “C (values between 0.10 and 0.30: range “C”)”; the “IL-2 100 nM” value is “B (values between 0.31 and 0.79: range “B”)”.
Consider `CCSc1cc(C2(Cc3nncn3C)COC2)cc(N2Cc3c(NC)cc(CN4CCC[C@H](C)C4)cc3C2=O)n1.O=CO` [Compound 130, 2-[6-(ethylsulfanyl)-4-{3-[(4-methyl-1,2,4-triazol-3-yl)methyl]oxetan-3-yl}pyridin-2-yl]-4-(methylamino)-6-{[(3S)-3-methylpiperidin-1-yl]methyl}-3H-isoindol-1-one; formic acid], for which the pIC50 in assay [1] was 7.70 to 8.30. In assay [2], the “IFN-y 1 nM” value was “C (values between 0.10 and 0.30: range “C”)”; the “IFN-y 10 nM” value is “C (values between 0.10 and 0.30: range “C”)”; the “IFN-y 100 nM” value was “B (values between 0.31 and 1.00: range “B;”)”. Further, in assay [3], the “CD69 10 nM” value was “C (values between 0.30 and 0.60: range “C”)”; the “CD69 100 nM” value was “B (values between 0.61 and 0.80: range “B;”)”. In addition, in assay [4], the “IL-2 1 nM” value is “C (values between 0.10 and 0.30: range “C”)”; the “IL-2 10 nM” value was “C (values between 0.10 and 0.30: range “C”)”; the “IL-2 100 nM” value is “B (values between 0.31 and 0.79: range “B”)”.
`C#CCCS(=O)(=O)N1CCN(c2cc(C3(Cc4nncn4C)COC3)cc(N3Cc4c(cc(CN5CCC[C@H](C)C5)cc4C(F)(F)F)C3=O)n2)CC1` [Compound 134, (S)-2-(6-(4-(but-3-yn-1-ylsulfonyl)piperazin-1-yl)-4-(3-((4-methyl-4H-1,2,4-triazol-3-yl)methyl)oxetan-3-yl)pyridin-2-yl)-6-((3-methylpiperidin-1-yl)methyl)-4-(trifluoromethyl)isoindolin-1-one] had a pIC50 in assay [1] of 7.70 to 8.30. Besides, in assay [2], the “IFN-y 1 nM” value was “B (values between 0.31 and 1.00: range “B;”)”; the “IFN-y 10 nM” value is “B (values between 0.31 and 1.00: range “B;”)”; the “IFN-y 100 nM” value was “B (values between 0.31 and 1.00: range “B;”)”. In addition, in assay [3], the “CD69 10 nM” value was “B (values between 0.61 and 0.80: range “B;”)”; the “CD69 100 nM” value was “A (values between 0.81 and 1.10: range “A”)”. Further, in assay [4], the “IL-2 1 nM” value was “C (values between 0.10 and 0.30: range “C”)”; the “IL-2 10 nM” value is “B (values between 0.31 and 0.79: range “B”)”; the “IL-2 100 nM” value was “B (values between 0.31 and 0.79: range “B”)”.
In assay [1], `CCC(CC#N)Nc1cc(C2(Cc3nncn3C)COC2)cc(N2Cc3c(cc(CN4CCC[C@H](C)C4)cc3C(F)(F)F)C2=O)n1.O=C(O)C(F)(F)F` (stereo partly drawn) [Compound 135, 3-((4-(3-((4-methyl-4H-1,2,4-triazol-3-yl)methyl)oxetan-3-yl)-6-(6-(((S)-3-methylpiperidin-1-yl)methyl)-1-oxo-4-(trifluoromethyl)isoindolin-2-yl)pyridin-2-yl)amino)pentanenitrile; trifluoroacetic acid] gave a negative logarithm of the IC50 (pIC50) of 7.70 to 8.30. In addition, in assay [2], the “IFN-y 1 nM” value was “C (values between 0.10 and 0.30: range “C”)”; the “IFN-y 10 nM” value was “B (values between 0.31 and 1.00: range “B;”)”; the “IFN-y 100 nM” value was “B (values between 0.31 and 1.00: range “B;”)”. Further, in assay [3], the “CD69 10 nM” value is “B (values between 0.61 and 0.80: range “B;”)”; the “CD69 100 nM” value is “A (values between 0.81 and 1.10: range “A”)”. Also, in assay [4], the “IL-2 1 nM” value is “C (values between 0.10 and 0.30: range “C”)”; the “IL-2 10 nM” value is “B (values between 0.31 and 0.79: range “B”)”; the “IL-2 100 nM” value was “B (values between 0.31 and 0.79: range “B”)”.
For the compound `C[C@H]1CCCN(Cc2cc3c(c(C(F)(F)F)c2)CN(c2cc(C4(Cc5nncn5C)COC4)cc(N4CCN(C(=O)CCCN=[N+]=[N-])CC4)n2)C3=O)C1` [Compound 136, (S)-2-(6-(4-(4-azidobutanoyl)piperazin-1-yl)-4-(3-((4-methyl-4H-1,2,4-triazol-3-yl)methyl)oxetan-3-yl)pyridin-2-yl)-6-((3-methylpiperidin-1-yl)methyl)-4-(trifluoromethyl)isoindolin-1-one], the pIC50 in assay [1] is 7.70 to 8.30. Besides, in assay [2], the “IFN-y 1 nM” value is “C (values between 0.10 and 0.30: range “C”)”; the “IFN-y 10 nM” value is “B (values between 0.31 and 1.00: range “B;”)”; the “IFN-y 100 nM” value was “B (values between 0.31 and 1.00: range “B;”)”. Also, in assay [3], the “CD69 10 nM” value is “B (values between 0.61 and 0.80: range “B;”)”; the “CD69 100 nM” value was “A (values between 0.81 and 1.10: range “A”)”. Also, in assay [4], the “IL-2 1 nM” value is “C (values between 0.10 and 0.30: range “C”)”; the “IL-2 10 nM” value is “B (values between 0.31 and 0.79: range “B”)”; the “IL-2 100 nM” value was “B (values between 0.31 and 0.79: range “B”)”.
